According to article PMC8634379, “From the Design to the In Vivo Evaluation of Benzohomoadamantane-Derived Soluble Epoxide Hydrolase Inhibitors for the Treatment of Acute Pancreatitis” (Journal of Medicinal Chemistry, 2021):

What was measured:
rat sEH = biological target: T1, rat sEH (Rattus norvegicus, UniProt P80299); experiment: sEH inhibition, fluorescent-based assay (CMNPC substrate); type: biochemical; conditions: purified recombinant enzyme, average of three replicates
T1 sequence (P80299 1-554): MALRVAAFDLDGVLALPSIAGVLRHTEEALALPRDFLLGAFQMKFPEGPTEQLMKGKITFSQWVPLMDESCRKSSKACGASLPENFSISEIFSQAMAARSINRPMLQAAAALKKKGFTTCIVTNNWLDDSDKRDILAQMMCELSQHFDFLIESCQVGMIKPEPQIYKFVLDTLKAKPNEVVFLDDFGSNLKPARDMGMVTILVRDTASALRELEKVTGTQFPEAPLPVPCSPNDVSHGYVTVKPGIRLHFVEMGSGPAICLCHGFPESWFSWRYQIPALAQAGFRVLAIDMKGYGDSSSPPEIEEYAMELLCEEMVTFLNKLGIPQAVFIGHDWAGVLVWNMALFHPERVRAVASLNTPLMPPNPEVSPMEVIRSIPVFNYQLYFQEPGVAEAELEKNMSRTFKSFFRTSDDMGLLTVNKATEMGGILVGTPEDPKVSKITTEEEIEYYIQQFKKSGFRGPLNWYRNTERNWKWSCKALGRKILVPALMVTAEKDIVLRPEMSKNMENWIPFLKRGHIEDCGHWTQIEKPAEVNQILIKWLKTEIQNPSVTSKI
Protocol: (§1) The IC50 values reported herein were determined using a fluorescent-based assay (CMNPC as substrate).[16] The fluorescent assay was used with purified recombinant human, mouse, or rat sEH proteins. The enzymes were incubated at 30 °C with the inhibitors ([I]final = 0.4–100,000 nM) for 5 min in 100 mM sodium phosphate buffer (200 μL, pH 7.4) containing 0.1 mg/mL of BSA and 1% of DMSO. The substrate (CMNPC) was then added ([S]final = 5 μM). […] Results were obtained by regression analysis from a linear region of the curve.

murine sEH = biological target: T2, murine sEH (Mus musculus, UniProt P34914); experiment: as above; type: biochemical; conditions: purified recombinant enzyme, average of three replicates
T2 sequence (P34914 1-554): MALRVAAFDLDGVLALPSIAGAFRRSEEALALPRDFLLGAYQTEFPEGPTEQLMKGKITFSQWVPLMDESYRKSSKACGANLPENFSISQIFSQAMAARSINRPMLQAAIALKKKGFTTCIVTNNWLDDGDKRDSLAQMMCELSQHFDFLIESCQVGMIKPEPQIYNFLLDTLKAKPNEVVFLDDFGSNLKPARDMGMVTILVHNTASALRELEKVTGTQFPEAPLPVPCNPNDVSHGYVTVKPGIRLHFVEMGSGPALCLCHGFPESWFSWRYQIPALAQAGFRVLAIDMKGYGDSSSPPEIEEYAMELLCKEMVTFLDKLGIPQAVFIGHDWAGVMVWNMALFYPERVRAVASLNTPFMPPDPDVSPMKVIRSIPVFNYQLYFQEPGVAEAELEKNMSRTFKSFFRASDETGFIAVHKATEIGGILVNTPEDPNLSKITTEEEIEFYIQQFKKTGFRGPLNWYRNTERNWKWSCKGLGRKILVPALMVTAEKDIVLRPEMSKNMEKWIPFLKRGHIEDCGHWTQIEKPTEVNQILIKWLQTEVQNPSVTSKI
Protocol: as §1

human sEH (hsEH) = biological target: T3, human sEH (hsEH) (Homo sapiens, UniProt P34913); experiment: as above; type: biochemical; conditions: purified recombinant enzyme, average of three replicates
T3 sequence (P34913 1-555): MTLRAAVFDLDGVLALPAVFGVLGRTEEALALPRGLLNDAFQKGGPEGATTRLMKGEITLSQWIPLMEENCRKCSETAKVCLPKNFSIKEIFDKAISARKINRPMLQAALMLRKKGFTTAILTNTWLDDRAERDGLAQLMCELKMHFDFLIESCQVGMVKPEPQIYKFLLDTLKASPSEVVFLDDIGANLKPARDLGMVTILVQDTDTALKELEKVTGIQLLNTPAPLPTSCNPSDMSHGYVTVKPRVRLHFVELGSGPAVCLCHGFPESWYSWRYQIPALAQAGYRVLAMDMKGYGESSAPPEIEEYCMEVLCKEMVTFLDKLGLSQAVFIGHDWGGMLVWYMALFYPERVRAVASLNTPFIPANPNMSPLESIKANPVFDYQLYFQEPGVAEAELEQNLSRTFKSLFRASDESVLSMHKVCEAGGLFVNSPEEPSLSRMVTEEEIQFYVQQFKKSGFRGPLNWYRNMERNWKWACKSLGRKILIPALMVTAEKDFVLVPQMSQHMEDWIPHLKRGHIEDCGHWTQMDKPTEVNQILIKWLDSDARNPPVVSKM
Protocol: as §1

CYP 2C9 = CYP 2C9 (Homo sapiens, UniProt P11712); experiment: Cytochrome P450 inhibition, fluorescence detection; type: in vitro ADME; conditions: at 10 μM
Chain of CYP 2C9 (P11712 whole entry): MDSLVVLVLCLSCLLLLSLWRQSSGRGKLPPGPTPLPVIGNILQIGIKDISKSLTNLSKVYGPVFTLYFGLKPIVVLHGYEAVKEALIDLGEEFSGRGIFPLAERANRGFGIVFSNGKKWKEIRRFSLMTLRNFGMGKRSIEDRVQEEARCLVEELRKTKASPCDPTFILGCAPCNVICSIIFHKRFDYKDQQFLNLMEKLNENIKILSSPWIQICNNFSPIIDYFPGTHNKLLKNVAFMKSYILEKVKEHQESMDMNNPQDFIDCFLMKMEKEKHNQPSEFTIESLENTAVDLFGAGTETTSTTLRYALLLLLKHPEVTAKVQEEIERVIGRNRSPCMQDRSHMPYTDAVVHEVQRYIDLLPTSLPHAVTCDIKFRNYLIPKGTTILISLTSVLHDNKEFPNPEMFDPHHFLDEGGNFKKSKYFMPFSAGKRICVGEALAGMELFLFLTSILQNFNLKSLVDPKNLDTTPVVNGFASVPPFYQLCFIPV

hERG potassium channel = biological target: T4, hERG potassium channel (Homo sapiens, UniProt Q12809); experiment: hERG inhibition assay (Fluxor potassium ion channel kit, transfected CHO cells); type: cell-based; conditions: at 10 μM
T4 construct: expressed in transfected cells; host or cells: CHO
T4 sequence (Q12809 whole entry): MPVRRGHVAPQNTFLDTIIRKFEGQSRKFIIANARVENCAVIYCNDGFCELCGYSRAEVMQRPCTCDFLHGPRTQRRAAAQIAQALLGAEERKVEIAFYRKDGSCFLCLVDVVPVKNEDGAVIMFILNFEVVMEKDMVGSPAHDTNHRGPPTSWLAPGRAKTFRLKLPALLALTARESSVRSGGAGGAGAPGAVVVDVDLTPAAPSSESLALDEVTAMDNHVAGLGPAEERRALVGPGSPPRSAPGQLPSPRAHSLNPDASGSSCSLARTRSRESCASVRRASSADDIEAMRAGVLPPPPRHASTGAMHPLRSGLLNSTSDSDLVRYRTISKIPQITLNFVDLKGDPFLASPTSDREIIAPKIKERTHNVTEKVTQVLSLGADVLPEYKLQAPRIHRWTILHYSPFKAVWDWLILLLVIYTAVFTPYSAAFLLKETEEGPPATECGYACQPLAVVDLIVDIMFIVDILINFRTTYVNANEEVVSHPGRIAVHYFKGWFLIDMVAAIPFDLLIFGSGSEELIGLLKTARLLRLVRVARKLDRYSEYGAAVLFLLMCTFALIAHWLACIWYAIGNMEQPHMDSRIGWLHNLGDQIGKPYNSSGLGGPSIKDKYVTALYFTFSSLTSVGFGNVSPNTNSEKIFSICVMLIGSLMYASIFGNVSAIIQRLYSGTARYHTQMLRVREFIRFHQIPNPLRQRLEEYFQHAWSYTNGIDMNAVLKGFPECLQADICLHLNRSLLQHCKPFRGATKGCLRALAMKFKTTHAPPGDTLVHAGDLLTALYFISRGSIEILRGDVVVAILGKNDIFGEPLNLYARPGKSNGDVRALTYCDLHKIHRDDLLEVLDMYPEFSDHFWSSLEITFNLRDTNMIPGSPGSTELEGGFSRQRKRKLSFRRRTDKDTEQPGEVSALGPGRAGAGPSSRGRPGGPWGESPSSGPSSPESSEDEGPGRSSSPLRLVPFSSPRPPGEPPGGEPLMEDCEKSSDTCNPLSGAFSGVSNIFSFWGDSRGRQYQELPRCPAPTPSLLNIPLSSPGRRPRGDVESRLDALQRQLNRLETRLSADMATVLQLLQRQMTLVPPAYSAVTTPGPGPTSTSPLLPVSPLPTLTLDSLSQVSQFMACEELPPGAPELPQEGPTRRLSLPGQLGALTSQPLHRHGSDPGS
Protocol: The assay was carried out at a CHO cell line transfected with the hERG potassium channel. 72 h before the assay, 2500 cells were seeded on a 384-well black plate (Greiner 781091). The cell line was maintained at 37 °C in a 5% CO2 atmosphere for 24 h and at 30 °C in a 5% CO2 atmosphere for 48 h plus. hERG activity was measured by using the FluxorTM Potassium Ion Chanel Assay Kit (Thermo Fisher F10016). Medium was replaced for 20 μL of loading buffer and the cells were incubated for 60 min at RT, protected from direct light. After incubation, the loading buffer was replaced for the assay buffer and the compounds were incubated for 30 min at RT. 5 μL of a stimulus buffer was added to each well and the fluorescence was read (λex = 490 nm, λem = 525 nm) using an imaging plate reader system (FDSS7000EX, Hamamatsu) every second after the establishment of a baseline line.

CC12CC3CC(NC(=O)N[C@H]4CC[C@H](Oc5ccc(C(=O)O)cc5)CC4)(CC(C1)c1ccccc13)C2 [Compound 20, 4-[((1r,4r)-4-(3-(9-Methyl-5,6,8,9,10,11-Hexahydro-7H-5,9:7,11-dimethanobenzo[9]annulen-7-yl)ureido)cyclohexyl)oxy]benzoic Acid]
IC50 (rat sEH): 0.4 nM
IC50 (murine sEH): 9.9 nM
IC50 (human sEH (hsEH)): 0.9 nM
CYP 2C9 inhibition (CYP 2C9): 17 ± 3%
hERG channel inhibition (hERG potassium channel): 4%

O=C(NC12CC3CC(Cl)(CC(C1)c1ccccc13)C2)N[C@H]1CC[C@H](Oc2ccc(C(=O)O)cc2)CC1 [Compound 22, 4-[((1r,4r)-4-(3-(9-Chloro-5,6,8,9,10,11-hexahydro-7H-5,9:7,11-dimethanobenzo[9]annulen-7-yl)ureido)cyclohexyl)oxy]benzoic Acid]
CYP 2C9 inhibition (CYP 2C9): 31 ± 3%
hERG channel inhibition (hERG potassium channel): 44%

O=C(NC12CC3CC(F)(CC(C1)c1ccccc13)C2)N[C@H]1CC[C@H](Oc2ccc(C(=O)O)cc2)CC1 [Compound 23, 4-[((1r,4r)-4-(3-(9-Fluoro-5,6,8,9,10,11-hexahydro-7H-5,9:7,11-dimethanobenzo[9]annulen-7-yl)ureido)cyclohexyl)oxy]benzoic Acid]
IC50 (rat sEH): 0.4 nM
IC50 (murine sEH): 0.5 nM
IC50 (human sEH (hsEH)): 0.5 nM
